Assays:
PP1/PP2A-chimera (CRHM2) = assay: Inhibition of recombinant PP1/PP2A chimera; type: biochemical, human PP1 / bovine PP2A
Protocol: FIG. 6: Sequence of a PP1/PP2A chimera. To characterize the fostriecin binding site, the N-terminal region of PP1 was ligated to the C-terminal region of PP2A (in bold) to produce a PP1/PP2A-chimera (CRHM2). Previous studies indicate that the okadaic acid binding domain is contained in the C-terminal region of PP2A that was incorporated into CRHM2.
FIG. 7: Effect of fostriecin and okadaic acid on the activity of recombinant CRHM2. CRHM2 activity was assayed in the presence of the indicated amount of fostriecin (FIG. 7A) or okadaic acid (FIG. 7B). […] Assays were conducted as described in FIG. 5. Each point represents the mean ± SE (n>6).
PP1, an enzyme highly homologous to PP2A, could be expressed in a stable manner and in relatively large amounts. Thus, human PP1 was cloned and subcloned into a bacterial expression vector as was done for PP2A. […] To create a hybrid enzyme (a PP1/PP2A chimera) that could be expressed stably like rPP1 but would bind okadaic acid with high affinity like PP2A, a number of mutant forms of PP1 and PP2A were constructed. Then, through mutational analysis, the okadaic acid binding domain of PP2A was identified. The okadaic acid binding domain from PP2A was cloned behind the amino terminal domain of PP1. The hybrid, referred to as CRHM-2, was subcloned into an expression vector. Restriction analysis of CRHM-2 confirmed the identity of the construct.
In these studies, the bacterial expressed PP1/PP2A hybrid enzyme was produced by growing appropriate strains of transformed E. coli at 18° C. for 48 hours in LB-media containing 50 μg/ml ampicillin, 1 mM MnCl2, and 50 μM IPTG. The bacteria were lysed with a French Press, and after centrifugation at 15,000×g for 45 min, the phosphatase was partially purified via ion-exchange [High Q (BioRad) and MonoQ (Pharmacia)] and affinity [Heparin-Sepharose (Pharmacia)] chromatography. The sensitivity of the chimera to fostriecin was determined employing the same protein phosphatase assay employed with endogenous PP1 or PP2A, with the addition of MnCl2 (1 mM) to the assay buffer.

isolated myocytes = assay: Isolated myocyte simulated ischemia, osmotic fragility (trypan blue) index; type: cell-based, rabbit; conditions: 10 μM fostriecin added at onset of ischemia, 120 min; untreated cells 14.3
Protocol: Isolated Myocytes: Rabbit hearts were mounted on a perfusion apparatus as described above and perfused with "high potassium/low calcium" perfusion buffer containing 125 mM NaCl, 30 mM KCl, 25 mM NaHCO3, 1.2 mM KH2 PO4, 1 mg/ml BSA, 1.2 mM MgCl2, 11 mM glucose, 0.68 mM 1-glutamine, and a complete amino acid solution (pH 7.4) for 5 minutes. Collagenase (Worthington Biochemical, Freehold, N.J.) was added at a concentration of 1.25 mg/ml and the heart was perfused for 45-60 minutes until it became soft. The heart was removed from the apparatus and minced in 5 mls of perfusion buffer containing 0.1% w/v BSA. […] Cell counts and viability were assessed by removing 10 μl aliquots, mixing with an equal volume of Tyrode's solution containing 1% trypan blue, and counting within 3-5 minutes by light microscopy. […]
To simulate ischemia, the suspension was divided into 4-6 conical Eppendorf tubes and each tube was spun lightly to form a 0.2-0.5 ml pellet of packed cells. […] Within 5 minutes, at least 300 cells were examined with an inverted stage microscope from multiple areas of the slide, and the numbers of rounded and rod-shaped cells and those stained with trypan blue recorded. […]
The percentage of stained (dead) cells was determined, and a plot of % dead cells vs. time was constructed. An index of non-survival was calculated as the area under the curve after 2 hours and presented as %-hr. […]

acid phosphatase = assay: Effect on acid phosphatase; type: biochemical

## CC(O)(/C=C/C1CC=CC(=O)O1)C(CC(O)\C=C/C=C\C=C\CO)OP(=O)(O)O (stereo not shown) [fostriecin]
PP1/PP2A-chimera (CRHM2); [32P]-phosphohistone, 1 mM MnCl2 in assay buffer
  sensitivity / potency of inhibition of the chimera: sensitive
PP1/PP2A-chimera (CRHM2); enzyme printed as rPP2Ac-1
  binding affinity to the recombinant hybrid enzyme: affinity comparable to that of PP1
Isolated myocytes
  cell fragility index, area under the % trypan blue-positive cells vs time curve: 10.6 %.cndot.hr
Acid phosphatase
  effect on acid phosphatase: no effect
